These molecules were tested on 843126-344-R-J1-PDC complex spheroid viability (assay: Anticancer human tumor 843126-344-R-J1-PDC patient-derived melanoma cell line growth inhibition [POLQ]). Conditions: second compound 0.1 µM; first compound 0.316 µM; hits give low values.
Summary of the method: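 Growth inhibition in 3D: complex spheroids (tumor PDC, HUVEC, MSC) treated with POLQ inhibitor combinations; where Cmax unknown, highest tested concentration 10 microM, except SN-38 at 1 microM.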
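Also: spheroids exposed to drugs for seven days before readout.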

| Compound | viability, T/C [%] |
| --- | --- |
| COc1cc2cc(C(=O)CCC(=O)O)sc2cc1OC + COC1C(OC(N)=O)C(O)C(Oc2ccc3c(O)c(NC(=O)c4ccc(O)c(CC=C(C)C)c4)c(=O)oc3c2C)OC1(C)C | 103 |

Same assay, conditions: second compound 0.1 µM; first compound 1 µM; hits give low values

| Compound | viability, T/C [%] |
| --- | --- |
| COc1cc(C2c3cc4c(cc3C(OC3OC5COC(C)OC5C(O)C3O)C3COC(=O)C23)OCO4)cc(OC)c1O (configuration not stated) + Nc1ccc(C#CCN(C(=O)Cc2ncc(C(F)(F)F)cc2C(F)(F)F)c2ccc(F)cc2)nn1 | 94.3 |
| COc1cccc(OCCCN)c1-c1cc(Nc2cnc(C#N)cn2)n[nH]1 + Nc1ccc(C#CCN(C(=O)Cc2ncc(C(F)(F)F)cc2C(F)(F)F)c2ccc(F)cc2)nn1 | 32.1 |
| O=c1[nH]cc(F)c(=O)[nH]1 + Cc1cccc(N(C)C(=O)C2C(O)CCN2c2nc(C)cc(C(F)(F)F)c2C#N)c1 | 97.5 |
| C=CCn1c(=O)c2cnc(Nc3ccc(N4CCN(C)CC4)cc3)nc2n1-c1cccc(C(C)(C)O)n1 + COC1C(OC(N)=O)C(O)C(Oc2ccc3c(O)c(NC(=O)c4ccc(O)c(CC=C(C)C)c4)c(=O)oc3c2C)OC1(C)C | 70.6 |
| CCc1c2c(nc3ccc(O)cc13)-c1cc3c(c(=O)n1C2)COC(=O)[C@]3(O)CC + COC1C(OC(N)=O)C(O)C(Oc2ccc3c(O)c(NC(=O)c4ccc(O)c(CC=C(C)C)c4)c(=O)oc3c2C)OC1(C)C | 48.6 |
| O=c1[nH]cc(F)c(=O)[nH]1 + Nc1ccc(C#CCN(C(=O)Cc2ncc(C(F)(F)F)cc2C(F)(F)F)c2ccc(F)cc2)nn1 | 89 |
| COc1cc2cc(C(=O)CCC(=O)O)sc2cc1OC + COC1C(OC(N)=O)C(O)C(Oc2ccc3c(O)c(NC(=O)c4ccc(O)c(CC=C(C)C)c4)c(=O)oc3c2C)OC1(C)C | 91 |

Same assay, conditions: second compound 0.1 µM; first compound 3.16 µM; hits give low values

| Compound | viability, T/C [%] |
| --- | --- |
| COc1cc(C2c3cc4c(cc3C(OC3OC5COC(C)OC5C(O)C3O)C3COC(=O)C23)OCO4)cc(OC)c1O (configuration not stated) + Nc1ccc(C#CCN(C(=O)Cc2ncc(C(F)(F)F)cc2C(F)(F)F)c2ccc(F)cc2)nn1 | 73.4 |
| O=c1[nH]cc(F)c(=O)[nH]1 + Cc1cccc(N(C)C(=O)C2C(O)CCN2c2nc(C)cc(C(F)(F)F)c2C#N)c1 | 81.5 |
| O=c1[nH]cc(F)c(=O)[nH]1 + Nc1ccc(C#CCN(C(=O)Cc2ncc(C(F)(F)F)cc2C(F)(F)F)c2ccc(F)cc2)nn1 | 82.4 |
| COc1cc2cc(C(=O)CCC(=O)O)sc2cc1OC + COC1C(OC(N)=O)C(O)C(Oc2ccc3c(O)c(NC(=O)c4ccc(O)c(CC=C(C)C)c4)c(=O)oc3c2C)OC1(C)C | 108 |

Same assay, conditions: second compound 0.1 µM; first compound 10 µM; hits give low values

| Compound | viability, T/C [%] |
| --- | --- |
| COc1cc(C2c3cc4c(cc3C(OC3OC5COC(C)OC5C(O)C3O)C3COC(=O)C23)OCO4)cc(OC)c1O (configuration not stated) + Nc1ccc(C#CCN(C(=O)Cc2ncc(C(F)(F)F)cc2C(F)(F)F)c2ccc(F)cc2)nn1 | 51.4 |
| O=c1[nH]cc(F)c(=O)[nH]1 + Cc1cccc(N(C)C(=O)C2C(O)CCN2c2nc(C)cc(C(F)(F)F)c2C#N)c1 | 93.2 |
| O=c1[nH]cc(F)c(=O)[nH]1 + Nc1ccc(C#CCN(C(=O)Cc2ncc(C(F)(F)F)cc2C(F)(F)F)c2ccc(F)cc2)nn1 | 93.4 |
| COc1cc2cc(C(=O)CCC(=O)O)sc2cc1OC + COC1C(OC(N)=O)C(O)C(Oc2ccc3c(O)c(NC(=O)c4ccc(O)c(CC=C(C)C)c4)c(=O)oc3c2C)OC1(C)C | 94.4 |

Same assay, conditions: second compound 0.316 µM; first compound 0.00316 µM; hits give low values

| Compound | viability, T/C [%] |
| --- | --- |
| COc1cccc(OCCCN)c1-c1cc(Nc2cnc(C#N)cn2)n[nH]1 + Nc1ccc(C#CCN(C(=O)Cc2ncc(C(F)(F)F)cc2C(F)(F)F)c2ccc(F)cc2)nn1 | 92.9 |
| C=CCn1c(=O)c2cnc(Nc3ccc(N4CCN(C)CC4)cc3)nc2n1-c1cccc(C(C)(C)O)n1 + COC1C(OC(N)=O)C(O)C(Oc2ccc3c(O)c(NC(=O)c4ccc(O)c(CC=C(C)C)c4)c(=O)oc3c2C)OC1(C)C | 87 |
| CCc1c2c(nc3ccc(O)cc13)-c1cc3c(c(=O)n1C2)COC(=O)[C@]3(O)CC + COC1C(OC(N)=O)C(O)C(Oc2ccc3c(O)c(NC(=O)c4ccc(O)c(CC=C(C)C)c4)c(=O)oc3c2C)OC1(C)C | 70.5 |

Same assay, conditions: second compound 0.316 µM; first compound 0.01 µM; hits give low values

| Compound | viability, T/C [%] |
| --- | --- |
| COc1cccc(OCCCN)c1-c1cc(Nc2cnc(C#N)cn2)n[nH]1 + Nc1ccc(C#CCN(C(=O)Cc2ncc(C(F)(F)F)cc2C(F)(F)F)c2ccc(F)cc2)nn1 | 72.5 |
| C=CCn1c(=O)c2cnc(Nc3ccc(N4CCN(C)CC4)cc3)nc2n1-c1cccc(C(C)(C)O)n1 + COC1C(OC(N)=O)C(O)C(Oc2ccc3c(O)c(NC(=O)c4ccc(O)c(CC=C(C)C)c4)c(=O)oc3c2C)OC1(C)C | 115 |
| CCc1c2c(nc3ccc(O)cc13)-c1cc3c(c(=O)n1C2)COC(=O)[C@]3(O)CC + COC1C(OC(N)=O)C(O)C(Oc2ccc3c(O)c(NC(=O)c4ccc(O)c(CC=C(C)C)c4)c(=O)oc3c2C)OC1(C)C | 59.4 |

Same assay, conditions: second compound 0.316 µM; first compound 0.0316 µM; hits give low values

| Compound | viability, T/C [%] |
| --- | --- |
| COc1cc(C2c3cc4c(cc3C(OC3OC5COC(C)OC5C(O)C3O)C3COC(=O)C23)OCO4)cc(OC)c1O (configuration not stated) + Nc1ccc(C#CCN(C(=O)Cc2ncc(C(F)(F)F)cc2C(F)(F)F)c2ccc(F)cc2)nn1 | 91.8 |
| COc1cccc(OCCCN)c1-c1cc(Nc2cnc(C#N)cn2)n[nH]1 + Nc1ccc(C#CCN(C(=O)Cc2ncc(C(F)(F)F)cc2C(F)(F)F)c2ccc(F)cc2)nn1 | 59.6 |
| O=c1[nH]cc(F)c(=O)[nH]1 + Cc1cccc(N(C)C(=O)C2C(O)CCN2c2nc(C)cc(C(F)(F)F)c2C#N)c1 | 105 |
| C=CCn1c(=O)c2cnc(Nc3ccc(N4CCN(C)CC4)cc3)nc2n1-c1cccc(C(C)(C)O)n1 + COC1C(OC(N)=O)C(O)C(Oc2ccc3c(O)c(NC(=O)c4ccc(O)c(CC=C(C)C)c4)c(=O)oc3c2C)OC1(C)C | 98.8 |
| CCc1c2c(nc3ccc(O)cc13)-c1cc3c(c(=O)n1C2)COC(=O)[C@]3(O)CC + COC1C(OC(N)=O)C(O)C(Oc2ccc3c(O)c(NC(=O)c4ccc(O)c(CC=C(C)C)c4)c(=O)oc3c2C)OC1(C)C | 64.9 |
| O=c1[nH]cc(F)c(=O)[nH]1 + Nc1ccc(C#CCN(C(=O)Cc2ncc(C(F)(F)F)cc2C(F)(F)F)c2ccc(F)cc2)nn1 | 92.4 |
| COc1cc2cc(C(=O)CCC(=O)O)sc2cc1OC + COC1C(OC(N)=O)C(O)C(Oc2ccc3c(O)c(NC(=O)c4ccc(O)c(CC=C(C)C)c4)c(=O)oc3c2C)OC1(C)C | 91.8 |

Same assay, conditions: second compound 0.316 µM; first compound 0.1 µM; hits give low values

| Compound | viability, T/C [%] |
| --- | --- |
| COc1cc(C2c3cc4c(cc3C(OC3OC5COC(C)OC5C(O)C3O)C3COC(=O)C23)OCO4)cc(OC)c1O (configuration not stated) + Nc1ccc(C#CCN(C(=O)Cc2ncc(C(F)(F)F)cc2C(F)(F)F)c2ccc(F)cc2)nn1 | 104 |
| COc1cccc(OCCCN)c1-c1cc(Nc2cnc(C#N)cn2)n[nH]1 + Nc1ccc(C#CCN(C(=O)Cc2ncc(C(F)(F)F)cc2C(F)(F)F)c2ccc(F)cc2)nn1 | 50 |
| O=c1[nH]cc(F)c(=O)[nH]1 + Cc1cccc(N(C)C(=O)C2C(O)CCN2c2nc(C)cc(C(F)(F)F)c2C#N)c1 | 108 |
| C=CCn1c(=O)c2cnc(Nc3ccc(N4CCN(C)CC4)cc3)nc2n1-c1cccc(C(C)(C)O)n1 + COC1C(OC(N)=O)C(O)C(Oc2ccc3c(O)c(NC(=O)c4ccc(O)c(CC=C(C)C)c4)c(=O)oc3c2C)OC1(C)C | 88.5 |
| CCc1c2c(nc3ccc(O)cc13)-c1cc3c(c(=O)n1C2)COC(=O)[C@]3(O)CC + COC1C(OC(N)=O)C(O)C(Oc2ccc3c(O)c(NC(=O)c4ccc(O)c(CC=C(C)C)c4)c(=O)oc3c2C)OC1(C)C | 64.8 |
| O=c1[nH]cc(F)c(=O)[nH]1 + Nc1ccc(C#CCN(C(=O)Cc2ncc(C(F)(F)F)cc2C(F)(F)F)c2ccc(F)cc2)nn1 | 109 |
| COc1cc2cc(C(=O)CCC(=O)O)sc2cc1OC + COC1C(OC(N)=O)C(O)C(Oc2ccc3c(O)c(NC(=O)c4ccc(O)c(CC=C(C)C)c4)c(=O)oc3c2C)OC1(C)C | 104 |

Same assay, conditions: second compound 0.316 µM; first compound 0.316 µM; hits give low values

| Compound | viability, T/C [%] |
| --- | --- |
| COc1cc(C2c3cc4c(cc3C(OC3OC5COC(C)OC5C(O)C3O)C3COC(=O)C23)OCO4)cc(OC)c1O (configuration not stated) + Nc1ccc(C#CCN(C(=O)Cc2ncc(C(F)(F)F)cc2C(F)(F)F)c2ccc(F)cc2)nn1 | 99.1 |

— PubChem BioAssay AID1963837 (Molecular Pharmacology Branch, DTP, NCI, 2024)
